“And” between values parts separate entries of the source, which are not always exact repeats. Equal entries are not always repeated. Toxic doses and inconclusive results are not listed.
Tested on: P388 leukemia ip, CD2F1 mice, survival T/C
Assay: NCI In Vivo Anticancer Drug Screen. Data for tumor model P388 Leukemia (intraperitoneal) in CD2F1 (CDF1) mice
Details: endpoint: median survival time, higher = longer survival
Method in brief: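 Mice carrying the transplanted tumor received test compound or vehicle. Survival was recorded in each group, and the value is the treated-group measurement divided by that of the vehicle-treated control group.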

[1] = dose: 50.0 mg/kg/injection, schedule: Q01DX005 (ip), vehicle: saline with Tween-80
[2] = dose: 100.0 mg/kg/injection, schedule: Q01DX005 (ip), vehicle: saline with Tween-80
[3] = dose: 60.0 mg/kg/injection, schedule: Q01DX005 (ip), vehicle: saline with Tween-80
[4] = dose: 120.0 mg/kg/injection, schedule: Q01DX005 (ip), vehicle: saline with Tween-80
[5] = dose: 240.0 mg/kg/injection, schedule: Q01DX005 (ip), vehicle: saline with Tween-80
[6] = dose: 12.5 mg/kg/injection, schedule: Q01DX009 (ip), vehicle: saline with Tween-80
[7] = dose: 25.0 mg/kg/injection, schedule: Q01DX009 (ip), vehicle: saline with Tween-80
[8] = dose: 50.0 mg/kg/injection, schedule: Q01DX009 (ip), vehicle: Klucel (hydroxypropylcellulose) (HPC)
[9] = dose: 100.0 mg/kg/injection, schedule: Q01DX009 (ip), vehicle: Klucel (hydroxypropylcellulose) (HPC)
[10] = dose: 200.0 mg/kg/injection, schedule: Q01DX009 (ip), vehicle: Klucel (hydroxypropylcellulose) (HPC)
[11] = dose: 60.0 mg/kg/injection, schedule: Q01DX005 (ip), vehicle: saline
[12] = dose: 120.0 mg/kg/injection, schedule: Q01DX005 (ip), vehicle: saline
[13] = dose: 240.0 mg/kg/injection, schedule: Q01DX005 (ip), vehicle: saline
[14] = dose: 12.5 mg/kg/injection, schedule: Q01DX009 (ip), vehicle: Klucel (hydroxypropylcellulose) (HPC)
[15] = dose: 25.0 mg/kg/injection, schedule: Q01DX009 (ip), vehicle: Klucel (hydroxypropylcellulose) (HPC)
[16] = dose: 50.0 mg/kg/injection, schedule: Q01DX009 (ip), vehicle: saline with Tween-80
[17] = dose: 100.0 mg/kg/injection, schedule: Q01DX009 (ip), vehicle: saline with Tween-80
[18] = dose: 50.0 mg/kg/injection, schedule: Q01DX005 (ip), vehicle: Klucel (hydroxypropylcellulose) (HPC)
[19] = dose: 100.0 mg/kg/injection, schedule: Q01DX005 (ip), vehicle: Klucel (hydroxypropylcellulose) (HPC)
[20] = dose: 200.0 mg/kg/injection, schedule: Q01DX005 (ip), vehicle: Klucel (hydroxypropylcellulose) (HPC)

Cc1cc(C)nc(N/N=C\c2c(Cl)cccc2Cl)n1
T/C (dose: 50.0 mg/kg/injection, schedule: Q04DX003 (ip), vehicle: Klucel (hydroxypropylcellulose) (HPC)): 100 % of control
T/C (dose: 100.0 mg/kg/injection, schedule: Q04DX003 (ip), vehicle: Klucel (hydroxypropylcellulose) (HPC)): 98 % of control
T/C (dose: 200.0 mg/kg/injection, schedule: Q04DX003 (ip), vehicle: Klucel (hydroxypropylcellulose) (HPC)): 94 % of control

CC1CC(O)C(CN(C)C)C(C)(C)C1 (stereo unspecified)
T/C [1]: 106 % of control
T/C [2]: 100 % of control

O=c1[nH]c2cc([N+](=O)[O-])ccc2nc1/C=C(\O)c1cccc2ccccc12
T/C (dose: 30.0 mg/kg/injection, schedule: Q01DX005 (ip), vehicle: Klucel + Tween-80): 91 % of control
T/C (dose: 60.0 mg/kg/injection, schedule: Q01DX005 (ip), vehicle: Klucel + Tween-80): 87 % of control and 94 % of control
T/C (dose: 120.0 mg/kg/injection, schedule: Q01DX005 (ip), vehicle: Klucel + Tween-80): 86 % of control
T/C (dose: 240.0 mg/kg/injection, schedule: Q01DX005 (ip), vehicle: Klucel + Tween-80): 88 % of control

Cc1ccc(/[N+]([O-])=C/c2ccccc2)cc1
T/C [3]: 92 % of control
T/C [4]: 94 % of control
T/C [5]: 89 % of control

CCCC(=O)Nc1cc2c3c(c1)CCCN3CCC2
T/C [6]: 100 % of control
T/C [7]: 95 % of control

CC(=O)Nc1cccc(N(CCOS(C)(=O)=O)CCOS(C)(=O)=O)c1
T/C (dose: 20.0 mg/kg/injection, schedule: Q04DX003 (ip), vehicle: saline with Tween-80): 172 % of control

COc1ccc(=NC(C)=O)c2c(O)c3c(=O)c4[nH]c5c(OC)ccc(=NC(C)=O)c5c(O)c4c(=O)c3[nH]c12
T/C [8]: 89 % of control
T/C [9]: 99 % of control
T/C [10]: 99 % of control

COCC1(C)CC2CCCCC2CC1(C)O (stereo unspecified)
T/C [1]: 93 % of control
T/C [2]: 95 % of control
T/C (dose: 200.0 mg/kg/injection, schedule: Q01DX005 (ip), vehicle: saline with Tween-80): 86 % of control

COc1ccc(C2=C(C#N)C(=O)OCCN2C)cc1
T/C [3]: 94 % of control
T/C [4]: 100 % of control
T/C [5]: 101 % of control

COc1c(CNC(=O)CCl)cc2[nH]c(C)cc2c1CNC(=O)CCl
T/C [9]: 153 % of control
T/C [10]: 150 % of control

CS(=O)(=O)OCc1ccc(COS(C)(=O)=O)cc1
T/C (dose: 12.5 mg/kg/injection, schedule: Q04DX003 (ip), vehicle: Klucel (hydroxypropylcellulose) (HPC)): 123 % of control

Cc1cccc(C)c1NC(=O)Nc1cccc(C(F)(F)F)c1
T/C [3]: 100 % of control
T/C [4]: 100 % of control
T/C [5]: 90 % of control

COc1ccc(C(O)C2c3c(cc4c(c3OC)OCO4)CCN2C)c(CO)c1OC (stereo unspecified)
T/C (dose: 12.5 mg/kg/injection, schedule: Q01DX001 (ip), vehicle: Klucel (hydroxypropylcellulose) (HPC)): 88 % of control
T/C (dose: 25.0 mg/kg/injection, schedule: Q01DX001 (ip), vehicle: Klucel (hydroxypropylcellulose) (HPC)): 88 % of control
T/C (dose: 50.0 mg/kg/injection, schedule: Q01DX001 (ip), vehicle: Klucel (hydroxypropylcellulose) (HPC)): 94 % of control

c1c(-c2cc(C3CC3)on2)noc1C1CC1
T/C [11]: 100 % of control
T/C [12]: 109 % of control
T/C [13]: 105 % of control

CC1=CC(=C(c2ccc(N)cc2)c2ccc(N)cc2)C=CC1=N
T/C (dose: 1.56 mg/kg/injection, schedule: Q01DX005 (ip), vehicle: water): 117 % of control
T/C (dose: 3.12 mg/kg/injection, schedule: Q01DX005 (ip), vehicle: saline): 117 % of control
T/C (dose: 12.5 mg/kg/injection, schedule: Q01DX005 (ip), vehicle: water): 116 % of control

CN(C)C(=O)Oc1c(Cc2ccccc2)c(=O)n2c([nH]c3ccccc32)c1C#N
T/C [3]: 89 % of control
T/C [4]: 92 % of control

CCCCCN(CCCCC)CC(O)c1c(OC)ccc2ccccc12 (stereo unspecified)
T/C [14]: 102 % of control
T/C [15]: 103 % of control
T/C [8]: 94 % of control

CC(C)(C)C(=O)Nc1c(Cl)cc(Br)cc1Br
T/C (dose: 50.0 mg/kg/injection, schedule: Q01DX009 (ip), vehicle: saline + alcohol): 105 % of control
T/C (dose: 100.0 mg/kg/injection, schedule: Q01DX009 (ip), vehicle: saline + alcohol): 101 % of control
T/C (dose: 200.0 mg/kg/injection, schedule: Q01DX009 (ip), vehicle: saline + alcohol): 100 % of control

COC(=O)C12C(=O)C(C(=O)OC)(C(c3ccccc3)=C1c1ccccc1)C1OC(=O)OC12 (stereo unspecified)
T/C [16]: 91 % of control
T/C [17]: 86 % of control

Cc1ccc(N=S(C)(C)=O)cc1
T/C (dose: 100.0 mg/kg/injection, schedule: Q01DX001 (ip), vehicle: saline with Tween-80): 103 % of control
T/C (dose: 200.0 mg/kg/injection, schedule: Q01DX001 (ip), vehicle: saline with Tween-80): 104 % of control
T/C (dose: 400.0 mg/kg/injection, schedule: Q01DX001 (ip), vehicle: saline with Tween-80): 102 % of control

CN(C)CCSCC(=O)Nc1ccccc1Cl
T/C [11]: 103 % of control
T/C [12]: 106 % of control
T/C [13]: 106 % of control

CC(C)N1CCN(c2ccncc2S(=O)(=O)N2CCCCC2)CC1
T/C (dose: 50.0 mg/kg/injection, schedule: Q01DX009 (ip), vehicle: saline): 89 % of control
T/C (dose: 100.0 mg/kg/injection, schedule: Q01DX009 (ip), vehicle: saline): 96 % of control
T/C (dose: 200.0 mg/kg/injection, schedule: Q01DX009 (ip), vehicle: saline): 90 % of control

C(=Nc1ccccc1)C1=C(Nc2ccccc2)CCC1
T/C [18]: 100 % of control
T/C [19]: 100 % of control
T/C [20]: 106 % of control

CC=C/C=C/[C@@H]1O[C@](O)([C@H](CC)C(=O)NC/C=C/C=C(\C)[C@@H](OC)[C@@H](C)[C@@H]2O[C@H](/C=C/C=C/C=C(\C)C(=O)c3c(O)cc[nH]c3=O)[C@H](O)[C@@H]2O)[C@H](O)[C@H](O)C1(C)C
T/C (dose: 4.5 mg/kg/injection, schedule: Q01DX009 (ip), vehicle: Klucel (hydroxypropylcellulose) (HPC)): 108 % of control
T/C (dose: 9.0 mg/kg/injection, schedule: Q01DX009 (ip), vehicle: Klucel (hydroxypropylcellulose) (HPC)): 108 % of control
T/C (dose: 18.0 mg/kg/injection, schedule: Q01DX009 (ip), vehicle: Klucel (hydroxypropylcellulose) (HPC)): 104 % of control
T/C (dose: 36.0 mg/kg/injection, schedule: Q01DX009 (ip), vehicle: Klucel (hydroxypropylcellulose) (HPC)): 103 % of control
T/C [8]: 98 % of control
T/C [9]: 99 % of control
T/C [10]: 99 % of control
T/C (dose: 400.0 mg/kg/injection, schedule: Q01DX009 (ip), vehicle: Klucel (hydroxypropylcellulose) (HPC)): 102 % of control

c1ccc2c(c1)[nH]c1ccncc12
T/C [7]: 95 % of control
T/C [16]: 95 % of control

COCN(C)N=Nc1ccc(C(C)=O)cc1
T/C [18]: 100 % of control
T/C [19]: 104 % of control
T/C [20]: 121 % of control

CCCCCCC[n+]1cccc(S(=O)(=O)N2CCOCC2)c1
T/C [6]: 98 % of control
T/C [7]: 98 % of control
T/C [16]: 98 % of control

Cc1cc(=O)n2[nH]c(-c3ccc(C(C)(C)C)cc3)cc2n1
T/C [3]: 111 % of control
T/C [4]: 109 % of control
T/C [5]: 93 % of control

CCOC(=O)c1[nH]c2ccc(OC)c3c2c1CCC3=O
T/C [16]: 92 % of control
T/C [17]: 92 % of control
T/C (dose: 200.0 mg/kg/injection, schedule: Q01DX009 (ip), vehicle: saline with Tween-80): 92 % of control

CCOc1ccc(N=C([Se])CC)cc1
T/C (dose: 6.25 mg/kg/injection, schedule: Q01DX009 (ip), vehicle: Klucel (hydroxypropylcellulose) (HPC)): 109 % of control
T/C [14]: 102 % of control
T/C [15]: 92 % of control

Nc1nc(SN=Nc2ccc(S(N)(=O)=O)cc2)c2[nH]cnc2n1
T/C (dose: 7.5 mg/kg/injection, schedule: Q01DX009 (ip), vehicle: saline): 118 % of control
T/C (dose: 15.0 mg/kg/injection, schedule: Q01DX009 (ip), vehicle: saline): 100 % of control

Cn1c(=O)c2c(nc(/N=C/c3ccc([N+](=O)[O-])cc3)n2C)n(C)c1=O
T/C (dose: 100.0 mg/kg/injection, schedule: Q04DX003 (ip), vehicle: saline): 100 % of control
T/C (dose: 200.0 mg/kg/injection, schedule: Q04DX003 (ip), vehicle: saline): 86 % of control
T/C (dose: 400.0 mg/kg/injection, schedule: Q04DX003 (ip), vehicle: saline): 93 % of control

From PubChem BioAssay AID330 (DTP/NCI, 2004)
